How the values were obtained:
[1] = test system: adult, cycling rat; assay: Embryo implantation in the cycling rat after subcutaneous treatment; assay type: in vivo; settings: 20 mg/kg s.c. once daily d1-d8, mating d7, uteri checked d16, female Wistar rats, 5 animals/group; vehicle 10 ± 4
Procedure: A total of 15 sexually mature female Wistar rats with a body weight of 200-220 g and a 4-day cycle were used. The animals were divided in one control group (group 1) and two treatment groups (group 2-3) consisting of 5 animals/group, respectively.
Starting in metestrus (d1) animals were treated for eight days (d1-d8), once daily, subcutaneously with the test compounds (treatment groups) or vehicle (control group), respectively. At day 7, at proestrus, animals were mated. The success of mating was checked by the presence of sperms in the vagina at d8. At d16 animals were sacrificed. Uteri were removed and checked for the presence of implantation sides. In each animal the number of implantation sides were determined.
Control group 1 received vehicle alone [(ethanol/arachisoil, 1+9 (v/v)].
Group 2 received 20 mg/kg FF-MAS, prepared in an ethanol/arachisoil vehicle.
Group 2 received 20 mg/kg FF-MAS-succinate, prepared in an ethanol/arachisoil vehicle.

[2] = test system: mouse oocytes; assay: Implantation rate after IVF: mouse oocyte cultivation with FF-MAS, in vitro-fertilization, tubal retransfer to foster mothers; assay type: cell-based
Procedure: Oocytes are obtained by puncture using a fine needle from the ovaries of mice primed with PMSG (pregnant mare serum gonadotrophin). The oocytes are cultivated for approx. 20 hours in a defined hypoxanthine-containing culture medium (Hx medium, see above) with FF-MAS (10 μM) (37° C.). The control oocytes are cultivated in defined culture medium without FF-MAS for the same period of time. Both the FF-MAS-oocytes and the control oocytes have begun meiosis maturation at the end of the culture period. All oocytes punctured on one day (from various mice) are pooled and distributed over the two study groups.
The oocytes cultivated in the mouse oocyte assay are further processed in this experiment. They are washed briefly 3× in a defined medium not containing FF-MAS and subsequently transferred into an IVF medium not containing FF-MAS. Then a defined number of capacitated sperms (obtained from the epididymides of a male mouse) is added and the oocytes are incubated with the sperms for approx. 4 hours in an incubator at 37° C. Following incubation the number of inseminated oocytes is counted.
1 day before the retransfer female recipient mice (foster mothers) in pre-estrus are mated with vasectomized males in order to trigger pseudogestation. One day later a vaginal check is performed. Animals with positive, sperm-free vaginal prop (successful mating) enter the study. This day is day 0 of gestation (=day 0 after the sterile copulation). Approx 10-15 inseminated oocytes are transferred into one tube (right) to the foster mothers on day 0 after the sterile copulation under anesthetization. The contralateral tube remains unused (check for pseudogestation). Only inseminated oocytes from the IVF experiment are used.
Retransfer is repeated until approx. 20 evaluable litters (with viable fetuses) have been obtained in all study groups (10 μM FF-MAS and one untreated control group).
The foster mothers are killed on day 17 of gestation. Uteri are removed. The number of viable and dead fetuses, the number of foster mothers, the number of pregnant foster mothers and the number of pregnant foster mothers with viable fetuses and with total fetal death, respectively, are counted.

[3] = test system: human oocytes; settings: Grøndahl et al. 1999; cited from earlier work
[4] = test system: mouse oocytes; settings: added to the culture medium; Hegele-Hartung et al. 1998; cited from earlier work

SMILES	Number of implantation sides [x ± sd] d16 [1]	Number of pregnant foster mothers [n] ([2]; 10 μM FF-MAS in culture medium, 69 foster mothers, control 43 of 153)	Number of pregnant foster mothers [%] ([2]; 10 μM FF-MAS in culture medium, % of foster mothers, control 28)	Number of pregnant foster mothers with viable fetuses [%] ([2]; 10 μM FF-MAS in culture medium, % of pregnant foster mothers, control 47)	Numbers of pregnant foster mothers with total fetal death [%] ([2]; 10 μM FF-MAS in culture medium, % of pregnant foster mothers, control 54)	Number of pregnant foster mothers with viable fetuses [n] ([2]; 10 μM FF-MAS in culture medium, control 20)	Numbers of pregnant foster mothers with total fetal death [n] ([2]; 10 μM FF-MAS in culture medium, control 23)	Number of viable fetuses [n] ([2]; 10 μM FF-MAS in oocyte culture medium approx. 20 h, IVF, retransfer, foster mothers killed day 17 of gestation, 69 foster mothers, control 45 of 153)	nuclear and cytoplasmic maturation [3]	fertilization rate [4]
CC(C)=CCCC(C)C1CC=C2C3=C(CCC21C)C1(C)CCC(OC(=O)CCC(=O)O)C(C)(C)C1CC3 (centres unmarked) [FF-MAS-succinate]	12 ± 2	–	–	–	–	–	–	–	–	–
CC(C)=CCC[C@@H](C)[C@H]1CC=C2C3=C(CC[C@@]21C)[C@@]1(C)CC[C@H](O)C(C)(C)[C@@H]1CC3 [FF-MAS, 4,4-dimethyl-5a-cholesta-8,14,24-triene-3β-ol]	15 ± 3	27 n	40%	78%	22%	21 n	6 n	42 n	improvement in nuclear and cytoplasmic maturation	increase the fertilization rate
